The source made the active and inactive calls.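 The calls were made as follows: active = compounds giving half or more protection of infected cells from virus-caused growth loss, again on retest; inactive = the rest.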
Tested on: CEM cells HIV-1 protection, formazan growth assay
Test: NCI AIDS Antiviral Assay
Settings: for IC50: measured here: growth of uninfected CEM cells
Procedure, shortened: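 Category rules: moderately active means at least 50% protection on retest, and confirmed active means 100% protection reproducibly. The underlying data came from a formazan growth assay in HIV-1-infected CEM cells.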

| SMILES | EC50 [µM] | outcome | IC50 [µM] |
| --- | --- | --- | --- |
| NC12CC3CC(CC(C3)C1)C2 | > 200 | inactive | > 200 |
| O=C(O)c1ccc(CS(=O)c2ccccc2)c([N+](=O)[O-])c1 (stereo unspecified) | – | inactive | – |
| Cc1ccc(/C=C2\NC(=S)NC2=O)cc1 | > 200 | – | > 200 |
| CN(C(=O)C1=CCCCCC1)c1ccccc1Br | > 813 | – | 389 |
| CC(=O)[O-].[O-]c1c(Cl)cc(Cl)cc1/C=N/Nc1ccccn1.[Zn+2] | – | inactive | – |
| COC(=O)C1OC12CCCCC2 (stereo unspecified) | > 200 | – | > 200 |
| CCC(=O)c1ccc2c(c1)N(CCCN1CCN(CCO)CC1)c1ccccc1S2 | > 200 | – | 9.33 |
| COc1ccc2c(c1OC)CN(C)CCc1cc3c(c(OC)c1C(=O)C2)OCO3 | – | inactive | – |
| C[C@@H](CC(=O)OCc1ccccc1)OC1OC(COC(=O)C(C)(C)C)C(OC(=O)C(C)(C)C)C(OC(=O)C(C)(C)C)C1OC(=O)C(C)(C)C (stereo partly specified) | > 200 | – | > 200 |
| CCOC(=O)NC(C(F)(F)F)(C(F)(F)F)P(=O)(OC(C)C)OC(C)C | > 200 | – | > 200 |
| Cc1cc(N(CCC#N)S(=O)(=O)c2ccccc2)ccc1/C=C1\N=C(c2ccc(Cl)cc2)OC1=O | > 257 | – | > 257 |
| O=C(C1OC1c1ccc(F)cc1)C12CC3CC(CC(C3)C1)C2 (stereo unspecified) | > 200 | – | 12 |
| CC1(O)CCC2(CCC(C)(O)CC2=O)C(=O)C1 (stereo unspecified) | > 200 | – | > 200 |
| COC(=O)c1ccccc1NC(=NC1CCCCCC1)NS(=O)(=O)c1ccc(C)cc1 | > 200 | – | > 200 |
| O=Cc1cc2c(cc1-c1c(C=O)ccc3c1OCO3)OCO2 | > 63.1 | – | 33.1 |
| O=c1c2ccccc2n2n1Cc1ccccc1C2 | > 200 | – | 102 |
| Cc1cc(=O)c2ccccc2o1 | – | inactive | – |
| COCCCCCCCCCCC(=O)OCC1OC(n2cc(C)c(=O)[nH]c2=O)CC1N=[N+]=[N-] (stereo unspecified) | – | active | 117 |
| COc1cc2c(cc1O)CN1Cc3c(ccc(OC)c3O)C2C1 (stereo unspecified) | > 282 | – | 251 |
| O=C1CN=C(c2ccccn2)c2cc(Cl)ccc2N1CCO | > 794 | – | 468 |
| CCOC(=O)c1c(-c2ccc(OC)c(O)c2)c(C#N)c(=S)n(C2OC(CO)C(O)C(O)C2O)c1-c1ccccc1 (stereo unspecified) | > 200 | – | > 200 |
| C=CCN1C(=O)CS/C1=N\NC(=O)Cc1nc2ccccc2[nH]1 | > 275 | – | > 275 |

| SMILES | EC50 [µM] | outcome | IC50 [µM] |
| --- | --- | --- | --- |
| CSc1nc2c(nc(N)n2C2OC(CO)C(O)C(O)C2O)c(=O)n1C (stereo unspecified) | – | inactive | – |
| COC1N(C2C=CC(CO)O2)C(=O)NC(=O)C1(C)Cl (stereo unspecified) | 468 | – | 1020 |
| O=C1C(OC(=O)c2ccccc2)=C(c2ccc(O)cc2)C(=O)C(OC(=O)c2ccccc2)=C1c1ccc(O)cc1 | > 39.8 | – | > 39.8 |
| Cc1cc2c(cc1C)NC1=C(N2)OC(c2ccccc2C)C1=O (stereo unspecified) | > 81.3 | – | > 81.3 |
| O=C(O)C(C(=O)O)P(=S)(S)c1ccccc1 (stereo unspecified) | > 4570 | – | > 4570 |
| CC(C)(CO)/[N+]([O-])=C/c1ccccc1 | > 200 | – | > 200 |
| COC(=O)C1Cc2c(n(C)c3ccccc23)C(CCC(=O)O)N1Cc1ccccc1 (stereo unspecified) | – | inactive | – |
| CC(=N/N=C/c1ccccn1)/C(C)=N/N=C(C)/C(C)=N/N=C(C)/C(C)=N/N=C(C)/C(C)=N\N=C\c1ccccn1 | – | inactive | – |
| CC(C)CCC[C@@H](C)C1CCC2[C@@H]3CC=C4C[C@@H](OS(=O)(=O)O)CC[C@]4(C)C3CC[C@@]21C (stereo partly specified) | – | active | – |
| Cc1ccc(S(=O)(=O)N2C[C@](O)(c3ccccc3)[C@H]2C)cc1 | > 200 | – | 195 |
| CCN(CC)Cc1nc2sc3c(c2c(=O)n1-c1ccccc1)CCCC3 | > 200 | – | 39.8 |
| CN(C)CCO/N=C1/C=C2CC[C@H]3[C@@H]4CC[C@H](O)[C@@]4(C)CC[C@@H]3[C@@]2(C)CC1 | > 200 | – | 6.03 |
| COc1ccc(NC(=O)CC(=O)N2N=C(N3c4ccccc4Sc4ccccc43)CC2c2ccccc2)cc1 (stereo unspecified) | – | inactive | – |
| CCOC(=O)C1=C(C)N(NC(N)=O)C2(N)N(NC(N)=O)C(C)=C(C(=O)OCC)C12C(=O)OCC (stereo unspecified) | > 513 | – | > 513 |
| C=C(CN(C)C)C(=O)c1ccc(Oc2ccccc2)cc1 | > 200 | – | 3.47 |
| CC(=O)[C@@]12OC(C)(c3ccco3)O[C@@H]1C[C@H]1[C@@H]3CCC4=CC(=O)CC[C@]4(C)[C@H]3CC[C@@]12C (stereo partly specified) | > 200 | – | 158 |
| Brc1cccc(N=NN2CCCC2)c1 | > 200 | – | 36.3 |
| COC(=O)C1CCC(=O)N1C(c1ccc(OC)cc1)c1cc(OC)c(OC)c(OC)c1 (stereo unspecified) | > 2 | – | 0.1 |
| CCOC(=O)c1c2c(n3ccccc13)C(=O)C(C)(C(=O)OCC)S2 (stereo unspecified) | – | active | – |
| Cc1cn(C2CC(O)C(CN=[N+]=[N-])O2)c(=O)[nH]c1=O (stereo unspecified) | > 933 | – | > 933 |
| C=C1CN(S(=O)(=O)c2ccc(C)cc2)CCCN(Cc2ccc[nH]2)CCCN(S(=O)(=O)c2ccc(C)cc2)C1 | > 200 | – | 14.5 |
| Cc1cn(C2CCC(CO)(CO)CC2O)c(=O)[nH]c1=O (stereo unspecified) | > 871 | – | > 871 |

| SMILES | EC50 [µM] | outcome | IC50 [µM] |
| --- | --- | --- | --- |
| CCCCN(CC)CC(C(C)=O)c1c(O)c2ccccc2oc1=O (stereo unspecified) | > 70.8 | – | > 70.8 |
| CCSC1=N/C(=C\c2ccco2)C(NN)=N1 | > 50.1 | – | > 50.1 |
| O=C(O)c1c(CC(Cc2ccc3c(c2)CCC3)C(=O)O)ccc2c1CCC2 (stereo unspecified) | > 200 | – | 145 |
| COc1cc(C(=O)C/C(CCC(=O)Nc2ccccc2[N+](=O)[O-])=N\NC(=O)CC#N)ccc1O | > 537 | – | 224 |
| CC(=O)N(CC(=O)C(=O)NNc1ccoc1)c1ccc(Cl)cc1 | > 200 | – | > 200 |
| O=C(c1ccccc1)c1nc2ccc(Cl)cc2cc1C(Br)Br | > 3.31 | – | > 3.31 |
| COC1CC(N)C(O)C(CN=[N+]=[N-])O1 (stereo unspecified) | – | inactive | – |
| NC(=O)/C(=N\NC(=O)c1cc2ccccc2cc1O)C1C(=O)N(c2ccccc2)N=C1N (stereo unspecified) | > 219 | – | 13.8 |
| COc1ccc(-c2cc(=O)c3c(OC)c(OC)c(OC)c(OC)c3o2)cc1OC | > 200 | – | 33.9 |
| CCOC(=O)c1ccc(-n2cnc(-c3ccc([N+](=O)[O-])cc3)c2)cc1 | 95.5 | – | > 200 |
| COc1ccc(C2=NN(c3nsc4ccccc34)C(=O)CC2)cc1 | > 40.7 | – | > 40.7 |
| Cn1c(=O)sc2cc(C(=S)N3CCC(Cc4ccccc4)CC3)ccc21 | > 200 | – | 36.3 |
| COC(=O)c1ccc(/C=C2\CCc3ccccc3C2=O)cc1 | > 200 | – | > 200 |
| CC(C)=CCN1CCCn2c(=S)[nH]c3cccc(c32)C1 | > 200 | – | > 200 |
| Cc1ccccc1-n1c(C)nc2ccccc2c1=O | > 269 | – | > 269 |
| Cc1cccc(C2NC(=S)N3C(c4cccc(C)c4)NC(=S)N23)c1 (stereo unspecified) | – | inactive | – |
| N#Cc1c(SCc2ccccc2)nc(-c2ccccc2)[nH]c1=S | > 151 | – | 19.5 |
| CC(C)CC1N=C(OCc2ccccc2)OC1=O (stereo unspecified) | > 200 | – | > 200 |
| Cc1cccc(C)c1NC(=O)/C(Cl)=C(/Cl)C(=O)O | – | inactive | – |
| O=c1c2ccc(Cl)cc2oc2ccc(Cl)cc12 | > 26.9 | – | > 26.9 |

— PubChem BioAssay AID179 (DTP/NCI, 2004)
